Calls of active or inactive are those of the source.
Assays:
[1] = Luminescence Cell-Based Dose Response to Identify Activators of 5'UTR Stem-Loop Driven Prion Protein mRNA Translation in H4-C Neuroglioblastoma Cells. [Related pubchem assays: 1829 (Project Summary), 1814 (Primary HTS)]; format: functional
[2] = Luminescence Cell-Based Dose Response HTS to Identify Activators of Luciferase Translation or Activity in H4 […] Cells. [Related pubchem assays: 1829 (Project Summary), 1814 (Primary HTS)]; format: functional
H4 = experiment: Luminescence Cell-Based Dose Response HTS to Identify Activators of 5'UTR Stem-Loop Driven Prion Protein mRNA Translation in H4 Neuroglioblastoma Cells. [Related pubchem assays: 1829 (Project Summary), 1814 (Primary HTS)]; format: functional; settings: Homo sapiens
[3] = Luminescence Cell-Based Dose Response to Identify Activators of Luciferase Translation or Activity in H4-C Neuroglioblastoma Cells. [Related pubchem assays: 1829 (Project Summary), 1814 (Primary HTS)]; format: functional
[4] = Luminescence Cell-Based Dose Confirmation to Identify Activators of 5'UTR Stem-Loop Driven Alpha-Synuclein mRNA Translation in H4 Neuroglioblastoma Cells. [Related pubchem assays: 1829 (Project Summary), 1814 (Primary HTS)]; format: functional
[5] = biological target: T1, Corticotropin-releasing factor receptor 2/Corticotropin-releasing factor-binding protein (Homo sapiens, UniProt P24387+Q13324); experiment: activators of CRF receptor 2 with binding protein – uHTS hits, confirmation (AID 602473); format: functional; settings: read-out: EC50_Mean
T1 sequence (Q13324 whole entry): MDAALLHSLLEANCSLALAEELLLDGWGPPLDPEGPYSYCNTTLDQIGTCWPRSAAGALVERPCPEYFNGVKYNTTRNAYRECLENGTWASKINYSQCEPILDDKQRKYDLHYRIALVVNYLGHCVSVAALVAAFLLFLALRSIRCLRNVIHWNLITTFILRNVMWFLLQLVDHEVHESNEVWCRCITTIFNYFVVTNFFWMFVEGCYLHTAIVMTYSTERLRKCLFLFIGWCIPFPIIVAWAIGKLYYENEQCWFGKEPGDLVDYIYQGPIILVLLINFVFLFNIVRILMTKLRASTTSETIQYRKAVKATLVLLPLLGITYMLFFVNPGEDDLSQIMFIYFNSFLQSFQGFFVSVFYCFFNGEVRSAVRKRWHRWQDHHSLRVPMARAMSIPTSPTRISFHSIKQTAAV
T1 sequence (P24387 whole entry): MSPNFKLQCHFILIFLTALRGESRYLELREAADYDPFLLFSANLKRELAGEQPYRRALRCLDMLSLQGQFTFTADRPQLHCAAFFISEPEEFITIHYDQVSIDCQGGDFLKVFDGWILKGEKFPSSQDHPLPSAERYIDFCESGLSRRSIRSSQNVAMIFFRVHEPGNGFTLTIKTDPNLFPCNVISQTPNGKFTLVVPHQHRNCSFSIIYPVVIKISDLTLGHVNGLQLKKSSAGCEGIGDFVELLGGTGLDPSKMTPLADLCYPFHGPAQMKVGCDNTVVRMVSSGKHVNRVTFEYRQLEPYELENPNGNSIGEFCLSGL

[6] = M. tuberculosis H37Rv growth inhibitors, H37Rv strain (AID 1626); format: functional
[7] = biological target: Protein-tyrosine kinase 2-beta (Homo sapiens, UniProt Q14289);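 note: potency of inhibitors of PYK2 kinase phosphorylation of poly-GT substrate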
[8] = biological target: T2, RNA-binding protein pos-1 (Caenorhabditis elegans, UniProt G5EF15); experiment: disruptors of C. elegans POS-1 RNA interaction – biochemical, fluorescence polarization, dose response (AID 1964);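 note: purified POS-1 fused to maltose binding protein made in E. coli; potency of compounds blocking POS-1 binding to fluorescent RNA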
T2 sequence (G5EF15 whole entry): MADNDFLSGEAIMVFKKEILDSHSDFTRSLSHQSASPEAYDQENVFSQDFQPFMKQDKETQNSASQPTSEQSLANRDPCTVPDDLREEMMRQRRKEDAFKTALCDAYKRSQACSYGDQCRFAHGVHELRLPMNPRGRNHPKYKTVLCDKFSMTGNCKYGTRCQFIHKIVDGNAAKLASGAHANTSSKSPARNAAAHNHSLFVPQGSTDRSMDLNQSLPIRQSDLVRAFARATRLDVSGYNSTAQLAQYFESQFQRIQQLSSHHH

[9] = biological target: T3, Zinc finger protein mex-5 (Caenorhabditis elegans, UniProt Q9XUB2); experiment: potency of MEX-5 RNA-binding blockers – biochemical, C. elegans, fluorescence polarization, dose response (AID 1960)
T3 sequence (Q9XUB2 whole entry): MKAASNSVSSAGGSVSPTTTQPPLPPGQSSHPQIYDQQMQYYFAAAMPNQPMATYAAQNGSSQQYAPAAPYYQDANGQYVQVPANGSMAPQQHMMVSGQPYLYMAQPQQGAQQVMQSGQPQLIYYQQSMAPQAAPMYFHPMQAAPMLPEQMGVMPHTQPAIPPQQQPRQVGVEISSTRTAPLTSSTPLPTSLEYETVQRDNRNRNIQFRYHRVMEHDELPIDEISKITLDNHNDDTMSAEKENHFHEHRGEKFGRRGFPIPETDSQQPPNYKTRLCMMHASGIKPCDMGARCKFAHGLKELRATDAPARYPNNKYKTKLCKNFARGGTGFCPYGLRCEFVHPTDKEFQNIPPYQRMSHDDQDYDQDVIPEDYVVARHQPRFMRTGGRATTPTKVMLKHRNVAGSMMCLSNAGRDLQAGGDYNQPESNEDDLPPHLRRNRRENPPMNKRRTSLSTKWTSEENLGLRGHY

[10] = biological target: Bifunctional protein GlmU (Mycobacterium tuberculosis, UniProt P9WMN3); experiment: Inhibitors of Mycobacterial Glucosamine-1-phosphate acetyl transferase (GlmU). Secondary screen.; design: species or system Mycobacterium tuberculosis H37Rv
Genome polyprotein = Genome polyprotein (dengue virus type 2, UniProt P29990); experiment: flavivirus cap methylation enzyme inhibition – biochemical, confirmation dose response, primary screen (AID 588689); format: functional
Bcl-2-related protein A1 [11] = biological target: T4, Bcl-2-related protein A1 (Mus musculus, UniProt Q07440); experiment: small-molecule antagonists of Bfl-1/BH3 interaction – biochemical, TR-FRET, mouse Bfl-1, confirmation (AID 621);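 note: TR-FRET binding of GST-Bfl-1 to FITC-labelled Bid peptide via terbium antibody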
T4 sequence (Q07440 whole entry): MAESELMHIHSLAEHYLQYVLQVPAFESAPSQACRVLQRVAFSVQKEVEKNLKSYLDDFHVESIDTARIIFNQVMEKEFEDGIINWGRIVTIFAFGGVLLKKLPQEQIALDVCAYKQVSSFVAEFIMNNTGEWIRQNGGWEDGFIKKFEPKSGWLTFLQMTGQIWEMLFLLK

Bcl-2-related protein A1 [12] = biological target: T4, Bcl-2-related protein A1; experiment: Bfl-1 binding inhibitors, SAR follow-up, biochemical, fluorescence polarization (AID 1070)
[13] = HIV-1 Vif–A3G interaction blockers – biochemical, TR-FRET, GST-Vif 1-94, biotin-A3G peptide, dose response retest, primary screen (AID 1117319); format: functional;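 note: TR-FRET signal of purified GST-Vif binding a biotinylated A3G peptide; inhibitors lower the FRET signal by blocking Vif and A3G binding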
Cytochrome P450 2D6 = Cytochrome P450 2D6 (Homo sapiens, UniProt P10635);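 note: CYP2D6 member of a cytochrome P450 panel assay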
Cytochrome P450 3A4 = Cytochrome P450 3A4 (Homo sapiens, UniProt P08684);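 note: CYP3A4 tested as one member of a cytochrome P450 panel screen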
[14] = viability inhibitors of stage V gametocytes – luminescence, dose response (AID 1117278); format: functional, cell-based;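 note: gametocytes exposed to compound for 24 hours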
[15] = viability loss in human Jurkat cells – cell-based, luminescence, cytotoxicity control for P. falciparum gametocyte viability project, dose response (AID 1117277); format: functional;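 note: potency reflects loss of cellular ATP meaning fewer viable cells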
[16] = antiviral protection against BTV-induced cell death – arbovirus, BSR cells, confirmation (AID 1250); format: functional;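 note: protection from viral cytopathic effect measured as cell viability by ATP luminescence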
[17] = biological target: Glucose-6-phosphate 1-dehydrogenase (Homo sapiens, UniProt P11413); experiment: inhibition of Homo sapiens G6PD, dose series – biochemical, fluorescence, selectivity assay for P. falciparum G6PD inhibitor project, dose response (AID 504792); format: functional
Sequence of Glucose-6-phosphate 1-dehydrogenase (P11413 whole entry): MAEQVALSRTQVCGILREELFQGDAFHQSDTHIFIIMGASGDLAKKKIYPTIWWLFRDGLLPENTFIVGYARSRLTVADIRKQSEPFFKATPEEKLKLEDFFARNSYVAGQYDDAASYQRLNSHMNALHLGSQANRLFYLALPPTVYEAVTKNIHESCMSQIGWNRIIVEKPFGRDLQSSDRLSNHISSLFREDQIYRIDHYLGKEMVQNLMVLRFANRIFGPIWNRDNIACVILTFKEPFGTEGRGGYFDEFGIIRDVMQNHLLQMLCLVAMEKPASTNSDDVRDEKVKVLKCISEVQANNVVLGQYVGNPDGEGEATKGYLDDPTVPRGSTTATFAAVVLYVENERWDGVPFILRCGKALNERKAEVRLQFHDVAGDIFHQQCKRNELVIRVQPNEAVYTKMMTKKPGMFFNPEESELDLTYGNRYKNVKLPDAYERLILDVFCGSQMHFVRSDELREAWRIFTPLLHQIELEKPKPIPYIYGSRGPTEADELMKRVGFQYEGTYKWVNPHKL

Sequence of Genome polyprotein (P29990 2492-3391 limits assumed): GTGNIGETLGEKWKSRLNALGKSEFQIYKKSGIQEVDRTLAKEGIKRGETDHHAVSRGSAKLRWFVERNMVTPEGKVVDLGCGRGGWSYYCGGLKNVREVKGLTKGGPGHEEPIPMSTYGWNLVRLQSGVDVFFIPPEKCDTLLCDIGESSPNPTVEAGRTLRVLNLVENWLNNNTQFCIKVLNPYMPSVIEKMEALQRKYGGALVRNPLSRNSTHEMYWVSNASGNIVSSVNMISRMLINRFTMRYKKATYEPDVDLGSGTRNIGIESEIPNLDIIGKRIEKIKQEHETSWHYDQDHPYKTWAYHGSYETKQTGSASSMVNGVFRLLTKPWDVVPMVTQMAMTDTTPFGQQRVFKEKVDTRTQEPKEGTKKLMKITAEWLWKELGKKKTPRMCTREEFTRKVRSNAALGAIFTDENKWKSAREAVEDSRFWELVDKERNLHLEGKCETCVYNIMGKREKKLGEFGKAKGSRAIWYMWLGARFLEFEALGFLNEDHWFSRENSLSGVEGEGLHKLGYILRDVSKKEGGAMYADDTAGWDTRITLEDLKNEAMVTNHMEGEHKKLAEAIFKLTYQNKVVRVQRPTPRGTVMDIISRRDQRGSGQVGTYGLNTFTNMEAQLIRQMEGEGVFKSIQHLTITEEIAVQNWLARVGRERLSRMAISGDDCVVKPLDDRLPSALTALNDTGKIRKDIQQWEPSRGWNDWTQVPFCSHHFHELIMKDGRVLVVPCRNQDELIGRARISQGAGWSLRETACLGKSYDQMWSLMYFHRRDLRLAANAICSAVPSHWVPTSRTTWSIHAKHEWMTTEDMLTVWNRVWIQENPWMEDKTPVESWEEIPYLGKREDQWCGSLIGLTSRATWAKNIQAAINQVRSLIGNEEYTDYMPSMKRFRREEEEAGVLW
Sequence of Protein-tyrosine kinase 2-beta (Q14289 whole entry, the tested form may be a part): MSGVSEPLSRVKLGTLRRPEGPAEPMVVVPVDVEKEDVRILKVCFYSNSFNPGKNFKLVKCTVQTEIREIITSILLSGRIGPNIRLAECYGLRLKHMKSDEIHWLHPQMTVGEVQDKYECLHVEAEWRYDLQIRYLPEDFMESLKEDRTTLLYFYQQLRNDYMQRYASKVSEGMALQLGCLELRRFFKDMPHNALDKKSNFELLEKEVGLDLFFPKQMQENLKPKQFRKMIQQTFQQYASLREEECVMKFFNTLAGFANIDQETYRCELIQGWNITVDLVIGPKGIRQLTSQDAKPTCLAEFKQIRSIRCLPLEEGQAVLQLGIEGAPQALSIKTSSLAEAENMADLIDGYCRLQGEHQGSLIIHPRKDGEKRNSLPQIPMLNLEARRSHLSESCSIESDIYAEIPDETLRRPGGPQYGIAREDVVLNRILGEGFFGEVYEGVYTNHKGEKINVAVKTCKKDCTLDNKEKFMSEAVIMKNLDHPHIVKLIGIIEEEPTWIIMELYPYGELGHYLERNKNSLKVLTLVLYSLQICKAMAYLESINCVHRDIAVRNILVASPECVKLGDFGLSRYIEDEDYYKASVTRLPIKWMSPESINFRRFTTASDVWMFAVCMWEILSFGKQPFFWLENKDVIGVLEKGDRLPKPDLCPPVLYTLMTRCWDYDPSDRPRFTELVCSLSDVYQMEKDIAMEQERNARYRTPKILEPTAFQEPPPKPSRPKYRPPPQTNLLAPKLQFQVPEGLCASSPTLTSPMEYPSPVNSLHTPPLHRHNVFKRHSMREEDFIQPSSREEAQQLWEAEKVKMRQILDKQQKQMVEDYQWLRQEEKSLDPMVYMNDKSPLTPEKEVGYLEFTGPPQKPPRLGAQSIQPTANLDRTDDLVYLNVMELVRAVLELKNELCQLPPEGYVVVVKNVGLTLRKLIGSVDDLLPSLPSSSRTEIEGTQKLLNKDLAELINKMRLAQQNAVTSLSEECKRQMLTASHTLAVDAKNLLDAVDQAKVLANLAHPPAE
Sequence of Bifunctional protein GlmU (P9WMN3 whole entry): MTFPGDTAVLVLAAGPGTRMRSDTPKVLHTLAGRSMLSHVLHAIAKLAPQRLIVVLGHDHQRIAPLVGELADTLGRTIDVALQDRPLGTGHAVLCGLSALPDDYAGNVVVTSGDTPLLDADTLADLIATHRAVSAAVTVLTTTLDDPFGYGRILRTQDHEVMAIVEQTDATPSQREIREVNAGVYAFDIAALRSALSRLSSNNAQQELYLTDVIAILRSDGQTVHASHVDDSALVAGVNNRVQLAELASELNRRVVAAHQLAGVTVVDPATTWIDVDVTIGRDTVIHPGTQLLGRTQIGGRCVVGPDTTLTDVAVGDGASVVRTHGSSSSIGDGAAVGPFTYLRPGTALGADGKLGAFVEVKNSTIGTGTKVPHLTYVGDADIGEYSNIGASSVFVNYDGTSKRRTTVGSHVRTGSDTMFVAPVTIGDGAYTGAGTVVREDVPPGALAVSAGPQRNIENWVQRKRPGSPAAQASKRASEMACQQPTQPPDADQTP
Sequence of Cytochrome P450 2D6 (P10635 whole entry): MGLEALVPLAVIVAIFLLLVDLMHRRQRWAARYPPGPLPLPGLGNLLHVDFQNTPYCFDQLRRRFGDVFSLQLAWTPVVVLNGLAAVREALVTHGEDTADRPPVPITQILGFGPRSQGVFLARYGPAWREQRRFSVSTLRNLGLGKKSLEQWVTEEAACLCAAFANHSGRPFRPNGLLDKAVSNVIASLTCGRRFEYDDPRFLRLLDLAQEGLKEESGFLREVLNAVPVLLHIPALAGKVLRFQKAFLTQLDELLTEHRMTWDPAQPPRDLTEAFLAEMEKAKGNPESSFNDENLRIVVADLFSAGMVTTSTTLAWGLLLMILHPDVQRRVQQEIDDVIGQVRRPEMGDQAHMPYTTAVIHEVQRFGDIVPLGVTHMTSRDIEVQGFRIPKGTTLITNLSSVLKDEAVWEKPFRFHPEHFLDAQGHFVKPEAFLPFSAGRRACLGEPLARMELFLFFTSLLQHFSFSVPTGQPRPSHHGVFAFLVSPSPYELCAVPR
Sequence of Cytochrome P450 3A4 (P08684 whole entry): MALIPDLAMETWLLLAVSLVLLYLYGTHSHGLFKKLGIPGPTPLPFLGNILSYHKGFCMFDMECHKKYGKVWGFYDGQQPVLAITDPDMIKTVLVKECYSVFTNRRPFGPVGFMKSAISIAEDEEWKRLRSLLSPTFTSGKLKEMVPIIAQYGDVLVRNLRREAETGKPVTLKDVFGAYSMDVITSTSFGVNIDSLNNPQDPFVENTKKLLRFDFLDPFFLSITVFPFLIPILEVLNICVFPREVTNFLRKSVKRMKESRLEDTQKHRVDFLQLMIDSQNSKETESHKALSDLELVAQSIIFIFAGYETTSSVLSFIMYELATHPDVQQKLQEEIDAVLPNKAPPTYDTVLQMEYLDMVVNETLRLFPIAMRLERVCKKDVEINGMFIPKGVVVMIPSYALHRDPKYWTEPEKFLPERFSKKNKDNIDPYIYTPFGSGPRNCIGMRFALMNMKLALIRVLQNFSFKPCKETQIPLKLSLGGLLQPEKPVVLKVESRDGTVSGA

Compound: Cc1nnc(SCC(=O)c2cc(C)n(C3CC3)c2C)s1
- EC50 [1]: 594 nM (active)
- EC50 [2]: < 100 nM (active)
- EC50 (H4): > 120 µM (not active)
- EC50 [3]: 266 nM (active)
- EC50 [4]: 1.88 µM (active)
- EC50 [5]: 7.62 µM (active)

Compound: O=Cc1ccc2noc(-c3ccc(F)cc3)c2c1
- IC50 [6]: > 100 µM (active)
- IC50 [7]: > 69.5 µM (not active)

Compound: COc1ccc(N2C(=O)C(Cl)=C(Nc3ccccc3O)C2=O)cc1
- EC50 [8]: > 300 µM (not active)
- EC50 [9]: 24.5 µM (active)
- IC50 [10]: 53.6 µM (active)
- IC50 (Genome polyprotein): 78 µM (active)

Compound: COc1ncccc1-c1nnn(-c2ccc(C)cc2)n1
- IC50 (Bcl-2-related protein A1 [11]): > 100 µM (not active)
- IC50 (Bcl-2-related protein A1 [12]): > 100 µM (not active)

Compound: O=C(N/N=C/c1ccc(F)cc1)c1ccc(Br)cc1
- IC50 [13]: > 50 µM (active)
- AC50 (Cytochrome P450 2D6): 3.55 µM (inconclusive)
- AC50 (Cytochrome P450 3A4): 22.4 µM (inconclusive)

Compound: O=C(COC(=O)Cc1ccc(F)cc1)NCc1ccco1
- IC50 [14]: > 109 µM (inactive)
- IC50 [15]: > 83.2 µM (inactive)

Compound: O=C(Nc1sc2c(c1C(=O)O)CCC2)c1ccc(F)cc1
- IC50 [16]: 31.4 µM (active)
- IC50 [17]: > 80 µM (inactive)

Compound: COc1ccc(Cl)c2c3n[nH]c(SCc4ccccn4)nc-3nc12
- EC50 [1]: 391 nM (active)
- EC50 [2]: < 100 nM (active)
- EC50 (H4): 25.2 µM (active)
- EC50 [3]: 287 nM (active)
- EC50 [4]: 0.249 µM (active)

— ChEMBL document CHEMBL1201862, “PubChem BioAssay data set” (2004)
